According to patent US20030162661A1, “2,4-Diamino-1,3,5-triazines, their preparation, and their use as herbicides and plant growth regulators” (priority 1998, published 2003):

How the values were obtained:
Format in all cases: in vivo
[1] = test system: harmful plants such as Sinapis alba, Echinochloa crus- galli, Lolium multiflorum, Stellaria media, Cyperus iria, Amaranthus retroflexus, Setaria viridis and …; test: Post-emergence effect on weeds (greenhouse pot test, visual scoring); settings: applied post-emergence (three-leaf stage) at an application rate of 1 kg and less of active substance per hectare; scored visually after about 3 to 4 weeks vs untreated controls
Experimental: 2. Post-emergence Effect on Weeds
Seeds or rhizome pieces of monocotyledonous and dicotyledonous weeds are placed in sandy loam soil in plastic pots, covered with soil and grown in the greenhouse under good growth conditions. Three weeks after sowing, the test plants are treated in the three-leaf stage. The compounds according to the invention which are formulated as wettable powders or as emulsion concentrates are sprayed in various dosages on the green parts of the plants at an application rate of 600 to 800 l of water/ha (converted). After the test plants have remained in the greenhouse for about 3 to 4 weeks under ideal growth conditions, the effect of the preparations is scored visually by comparison with untreated controls. The agents according to the invention also have a good herbicidal post-emergence action against a broad range of economically important grass weeds and dicotyledonous weeds.

[2] = test system: harmful plants such as Stellaria media, Lolium multiflorum, Amaranthus retroflexus, Sinapis alba, Avena sativa and Setaria viridis; test: Pre-emergence effect on weeds (greenhouse pot test, visual scoring); settings: applied pre-emergence at an application rate of 1 kg or less of active substance per hectare; scored visually after 3 to 4 weeks vs untreated controls
Source text: 1 Pre-emergence Effect on Weeds
Seeds or rhizome pieces of monocotyledonous and dicotyledonous weeds plants are placed in sandy loam soil in plastic pots and covered with soil. The compounds according to the invention which are formulated in the form of wettable powders or emulsion concentrates are then applied to the surface of the soil cover in the form of an aqueous suspension or emulsion at an application rate of 600 to 800 l of water/ha (converted), in various dosages.

[3] = test system: harmful plants which are typical for rice cultivation, such as Cyperus monti, Echinochloa crus-galli and Sagittaria pygmaea; test: Effect on harmful plants in rice (paddy rice conditions, visual scoring); settings: applied into the flooding water, various dosages, scored visually approximately three weeks after application
Experimental: 3. Effect on Harmful Plants in Rice
Transplanted and seeded rice and typical broad-leaved and monocotyledonous rice weeds are grown in the greenhouse to the three-leaf stage (Echinochloa crus- galli 1.5 leaf) under paddy rice conditions (depth of the water: 2-3 cm) in sealed plastic pots. They are then treated with the compounds according to the invention. To this end, the formulated active substances are suspended, dissolved or emulsified in water and applied in various dosages by pouring into the water with which the test plants are flooded. After this treatment, the test plants are placed in the greenhouse under ideal growth conditions and kept thus over the entire experimental period.
Approximately three weeks after application, the test is evalued by means of visually scoring the damage to the plants by comparison with untreated controls.

SMILES | herbicidal action against harmful plants, post-emergence [1] | herbicidal action against harmful plants, pre-emergence [2] | herbicidal action against harmful plants typical for rice cultivation [3]
Cc1cccc(CCC(Nc2nc(N)nc(C(C)(C)F)n2)C2CCC2)c1 (stereo not drawn) [Example 4-15] | very good herbicidal action | very good herbicidal action | good herbicidal action
COc1cccc(CCC(Nc2nc(N)nc(C(C)C)n2)C2CCC2)c1 (stereo not drawn) [Example 4-23] | very good herbicidal action | very good herbicidal action | good herbicidal action
COc1cccc(CCC(Nc2nc(N)nc(C(C)(C)F)n2)C2CCC2)c1 (stereo not drawn) [Example 4-24] | very good herbicidal action | very good herbicidal action | good herbicidal action
CC(C)(C#N)c1nc(N)nc(NC(CCc2ccccc2)C2CC2)n1 (stereo not drawn) [Example 9-4] | very good herbicidal action | very good herbicidal action | good herbicidal action
CC(C)(F)c1nc(N)nc(NC(CCc2cccc(F)c2)C2CC2)n1 (stereo not drawn) [Example 9-5] | very good herbicidal action | very good herbicidal action | good herbicidal action
CC(C)c1nc(N)nc(NC(CCc2cccc(Cl)c2)C2CC2)n1 (stereo not drawn) [Example 9-7] | very good herbicidal action | very good herbicidal action | good herbicidal action
CC(C)c1nc(N)nc(NC(CCc2ccccc2)C2CC2)n1 (stereo not drawn) [Example 9-9] | very good herbicidal action | very good herbicidal action | good herbicidal action
CC(C)(F)c1nc(N)nc(NC(CCc2ccccc2)C2CC2)n1 (stereo not drawn) [Example 9-10] | very good herbicidal action | very good herbicidal action | good herbicidal action
